Data from BindingDB's records for doi:10.1002/cbic.201000339 (University of York, 2010).

Biological target: T1, Alpha-fucosidase-like protein (Bacteroides thetaiotaomicron (strain ATCC 29148 / DSM 2079 / JCM 5827 / CCUG 10774 / NCTC 10582 / VPI-5482 / E50), UniProt Q8ABG8)
T1 sequence (Q8ABG8 whole entry): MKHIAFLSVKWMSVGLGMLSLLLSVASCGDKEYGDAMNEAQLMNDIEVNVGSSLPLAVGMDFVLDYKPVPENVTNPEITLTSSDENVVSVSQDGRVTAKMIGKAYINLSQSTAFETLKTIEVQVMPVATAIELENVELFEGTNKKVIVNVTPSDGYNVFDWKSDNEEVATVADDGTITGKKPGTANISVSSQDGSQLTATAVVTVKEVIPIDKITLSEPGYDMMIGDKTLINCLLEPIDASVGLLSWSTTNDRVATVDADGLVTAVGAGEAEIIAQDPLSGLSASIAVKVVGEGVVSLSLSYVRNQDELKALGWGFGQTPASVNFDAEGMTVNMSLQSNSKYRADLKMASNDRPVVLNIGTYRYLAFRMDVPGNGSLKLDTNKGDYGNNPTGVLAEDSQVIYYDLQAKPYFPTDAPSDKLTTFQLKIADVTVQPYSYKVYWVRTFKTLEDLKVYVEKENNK
Experiment: Enzyme Assay
Settings: 37 °C
Experimental: The kinetic studies involving a spectrophotometric product were conducted by monitoring the change in UV/visible absorbance with a Cintra 10 spectrophotometer.

Kd (pH 6)	Kd (pH 6.5)	Kd (pH 8.5)	SMILES
14.8 nM	27 nM	372 nM	C[C@@H]1NC[C@@H](O)[C@H](O)[C@@H]1O
46.6 nM	–	157 nM	CC1NC(CNC(=O)c2cccc3c2C(=O)c2ccccc2-3)C(O)C(O)C1O (stereo not given) [Fucosidase Inhibitor, 4]
